target: T1, Androgen Receptor dual T878A/L702H mutant protein (Homo sapiens, UniProt P10275, L702H/T878A); assay: Dual Mutant (T878A/L702H) Androgen Receptor Degradation Assay (HTRF, MDA-PCa-2b cells); assay type: cell-based; conditions: 18 h, 18 h incubation, read-out: mean asymptote max
T1 construct: host or cells: MDA-PCa-2b
T1 sequence (P10275 1-920 L702H/T878A): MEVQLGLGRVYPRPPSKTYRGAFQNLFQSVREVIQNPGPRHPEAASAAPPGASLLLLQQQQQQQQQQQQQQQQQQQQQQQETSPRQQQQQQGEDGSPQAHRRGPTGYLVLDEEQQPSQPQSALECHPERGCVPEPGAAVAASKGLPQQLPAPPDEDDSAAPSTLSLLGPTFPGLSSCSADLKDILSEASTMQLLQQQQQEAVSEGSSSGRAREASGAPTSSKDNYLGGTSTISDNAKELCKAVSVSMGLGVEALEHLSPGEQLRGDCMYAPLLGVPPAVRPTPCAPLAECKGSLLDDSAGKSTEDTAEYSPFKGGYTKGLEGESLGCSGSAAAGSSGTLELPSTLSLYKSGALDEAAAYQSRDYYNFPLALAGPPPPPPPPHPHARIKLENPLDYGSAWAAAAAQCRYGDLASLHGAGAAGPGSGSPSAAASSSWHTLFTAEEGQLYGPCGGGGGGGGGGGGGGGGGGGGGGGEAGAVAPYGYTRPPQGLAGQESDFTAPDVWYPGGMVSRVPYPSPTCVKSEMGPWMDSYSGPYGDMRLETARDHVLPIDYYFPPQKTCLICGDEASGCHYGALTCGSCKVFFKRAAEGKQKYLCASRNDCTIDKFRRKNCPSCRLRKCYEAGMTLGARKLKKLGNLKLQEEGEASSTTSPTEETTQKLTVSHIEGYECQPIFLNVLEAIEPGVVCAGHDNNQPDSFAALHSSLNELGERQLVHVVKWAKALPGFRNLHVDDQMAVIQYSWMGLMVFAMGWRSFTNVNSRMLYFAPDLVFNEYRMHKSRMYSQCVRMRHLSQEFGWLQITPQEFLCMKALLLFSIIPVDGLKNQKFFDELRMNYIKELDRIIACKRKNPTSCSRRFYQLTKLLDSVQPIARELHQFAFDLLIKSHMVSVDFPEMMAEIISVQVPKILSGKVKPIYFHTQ
Experimental: Degradation of Androgen Receptor dual T878A/L702H mutant protein in human MDA-PCa-2b (ATCC) cells treated with PROTACs was quantified using the HTRF Human Androgen Receptor Detection Kit (PerkinElmer) in 384 well assay plate format. 10 mM DMSO (Sigma-Aldrich) stock solutions of PROTACs were prepared and diluted across an 11 concentration, 3-fold increment range, and 25 nL dispensed into a white opaque bottomed 384 well assay plate (Thermofisher) using an acoustic ECHO dispenser (Labcyte). Cells were cultured in growth medium (BRFF—HPC-1 (Athena ES) supplemented with 20% FBS (Gibco), penicillin 50U/mL and streptomycin 50 μg/mL (Gibco, #15140-122)) in collagen I or poly-D-lysine coated T175 flasks (Corning, #356487 or #356539, respectively). For the assay, cells were harvested from the flask, centrifuged at 200 g for 5 min and then resuspended in the growth medium. 25 μl of cell suspension containing 10,000 cells was dispensed into each well of the assay plate containing the test compounds, which was then incubated for 18 h at 37° C./5% CO2. Control wells were included on each assay plate, with assay medium without cells being the no AR remaining 100% effect control, and cells treated with DMSO vehicle only, without PROTAC, the 0% effect control. After 18 h incubation 8 μl of supplemented lysis buffer from HTRF kit was added to each well and the plate shaken at 500 rpm for 1 h at room temperature. 8 μl of antibody mix in Detection buffer from HTRF kit was added to each well and the plate was incubated for 2 h in dark at mom temperature. The fluorescence was measured at both 620 nm and 665 nm using an excitation wavelength of 337 nm with a PHERAstar microplate reader (BMG Labtech) and the % AR protein remaining in each well was calculated by normalising the HTRF ratio (665 nm signal/620 nm signal) value to the control wells mentioned above. Parameters corresponding to the potency and efficacy estimates of the PROTACs were obtained from these normalised values using curve fitting software (IDBS ActivityBase). These included the DC50 and the Dmax estimates. Two versions of the DC50, called relative DC50 and absolute DC50, were typically generated. These are the inflection point of a fitted 4 parameter sigmoidal response curve and the interpolated concentration of PROTAC corresponding to 50% of the protein being degraded, respectively. The Dmax parameter was the maximum experimentally observed degradation and the asymptote max parameter the fitted response curve asymptote maximum.

| SMILES | Dmax [%] |
| --- | --- |
| CCOc1cc(O[C@H]2C(C)(C)[C@H](NC(=O)c3ccc(N4CCC(CN5CCC(n6ncc7c(N8CCC(=O)NC8=O)cccc76)CC5)CC4)c(F)c3)C2(C)C)ccc1C#N [Example 4, N-((1r,3r)-3-(4-Cyano-3-ethoxyphenoxy)-2,2,4,4-tetramethylcyclobutyl)-4-(4-((4-(4-(2,4-dioxotetrahydropyrimidin-1(2H)-yl)-1H-indazol-1-yl)piperidin-1-yl)methyl)piperidin-1-yl)-3-fluorobenzamide] | ≥ 50 |
| CC1(C)[C@H](NC(=O)c2ccc(N3CCC(CN4CCC(n5ncc6c(N7CCC(=O)NC7=O)cccc65)CC4)CC3)c(F)c2)C(C)(C)[C@H]1Oc1ccc(C#N)c(Cl)c1 [Example 1, N-((1r,3r)-3-(3-Chloro-4-cyanophenoxy)-2,2,4,4-tetramethylcyclobutyl)-4-(4-((4-(4-(2,4-dioxotetrahydropyrimidin-1(2H)-yl)-1H-indazol-1-yl)piperidin-1-yl)methyl)piperidin-1-yl)-3-fluorobenzamide] | ≥ 50 |
| Cc1ccc2c(O[C@H]3C(C)(C)[C@H](NC(=O)c4ccc(N5CCC(CN6CCC(n7ncc8c(N9CCC(=O)NC9=O)cccc87)CC6)CC5)c(F)c4)C3(C)C)ccc(C#N)c2n1 [Example 7, N-((1r,3r)-3-((8-cyano-2-methylquinolin-5-yl)oxy)-2,2,4,4-tetramethylcyclobutyl)-4-(4-((4-(4-(2,4-dioxotetrahydropyrimidin-1(2H)-yl)-1H-indazol-1-yl)piperidin-1-yl)methyl)piperidin-1-yl)-3-fluorobenzamide] | ≥ 50 |
| CC1(C)[C@H](NC(=O)c2ccc(N3CCC(CN4CC[C@H](n5ncc6c(N7CCC(=O)NC7=O)cccc65)C4)CC3)c(F)c2)C(C)(C)[C@H]1Oc1ccc(C#N)c(Cl)c1 [Example 10, N-((1r,3r)-3-(3-Chloro-4-cyanophenoxy)-2,2,4,4-tetramethylcyclobutyl)-4-(4-(((S)-3-(4-(2,4-dioxotetrahydropyrimidin-1(2H)-yl)-1H-indazol-1-yl)pyrrolidin-1-yl)methyl)piperidin-1-yl)-3-fluorobenzamide] | ≥ 50 |
| Cc1c(O[C@H]2C(C)(C)[C@H](NC(=O)c3ccc(N4CCC(CN5CCC(n6ncc7c(N8CCC(=O)NC8=O)cccc76)CC5)CC4)c(F)c3)C2(C)C)ccc(C#N)c1Cl [Example 2, N-((1r,3r)-3-(3-Chloro-4-cyano-2-methylphenoxy)-2,2,4,4-tetramethylcyclobutyl)-4-(4-((4-(4-(2,4-dioxotetrahydropyrimidin-1(2H)-yl)-1H-indazol-1-yl)piperidin-1-yl)methyl)piperidin-1-yl)-3-fluorobenzamide] | ≥ 50 |
| CC1(C)[C@H](NC(=O)c2ccc(N3CCC(CN4CCC(n5ncc6c(N7CCC(=O)NC7=O)cccc65)CC4)CC3)c(F)c2)C(C)(C)[C@H]1Oc1ccc(C#N)c2c1CCO2 [Example 9, N-((1r,3r)-3-((7-Cyano-2,3-dihydrobenzofuran-4-yl)oxy)-2,2,4,4-tetramethylcyclobutyl)-4-(4-((4-(4-(2,4-dioxotetrahydropyrimidin-1(2H)-yl)-1H-indazol-1-yl)piperidin-1-yl)methyl)piperidin-1-yl)-3-fluorobenzamide] | ≥ 50 |

Now from value to compound:

| Dmax [%] | SMILES |
| --- | --- |
| ≥ 50 | COc1cc(O[C@H]2C(C)(C)[C@H](NC(=O)c3ccc(N4CCC(CN5CCC(n6ccc7c(N8CCC(=O)NC8=O)cccc76)CC5)CC4)c(F)c3)C2(C)C)ccc1C#N [Example 22, N-((1r,3r)-3-(4-Cyano-3-methoxyphenoxy)-2,2,4,4-tetramethylcyclobutyl)-4-(4-((4-(4-(2,4-dioxotetrahydropyrimidin-1(2H)-yl)-1H-indol-1-yl)piperidin-1-yl)methyl)piperidin-1-yl)-3-fluorobenzamide] |
| ≥ 50 | COc1cc(O[C@H]2C(C)(C)[C@H](NC(=O)c3ccc(N4CCC(CN5CC[C@H](n6ncc7c(N8CCC(=O)NC8=O)cccc76)[C@H](F)C5)CC4)c(F)c3)C2(C)C)ccc1C#N [Example 26, N-((1r,3r)-3-(4-Cyano-3-methoxyphenoxy)-2,2,4,4-tetramethylcyclobutyl)-4-(4-(((3R,4S)-4-(4-(2,4-dioxotetrahydropyrimidin-1(2H)-yl)-1H-indazol-1-yl)-3-fluoropiperidin-1-yl)methyl)piperidin-1-yl)-3-fluorobenzamide] |
| ≥ 50 | CC1(C)[C@H](NC(=O)c2ccc(N3CCC(CN4CCC(n5ccc6c(N7CCC(=O)NC7=O)c(F)ccc65)CC4)CC3)c(F)c2)C(C)(C)[C@H]1Oc1ccc(C#N)c(Cl)c1 [Example 12, N-((1r,3r)-3-(3-Chloro-4-cyanophenoxy)-2,2,4,4-tetramethylcyclobutyl)-4-(4-((4-(4-(2,4-dioxotetrahydropyrimidin-1(2H)-yl)-5-fluoro-1H-indol-1-yl)piperidin-1-yl)methyl)piperidin-1-yl)-3-fluorobenzamide] |
| ≥ 50 | CC1(C)[C@H](NC(=O)c2ccc(N3CCC(CN4CCC(n5ncc6c(N7CCC(=O)NC7=O)cc(F)cc65)CC4)CC3)c(F)c2)C(C)(C)[C@H]1Oc1ccc(C#N)c(Cl)c1 [Example 11, N-((1r,3r)-3-(3-Chloro-4-cyanophenoxy)-2,2,4,4-tetramethylcyclobutyl)-4-(4-((4-(4-(2,4-dioxotetrahydropyrimidin-1(2H)-yl)-6-fluoro-1H-indazol-1-yl)piperidin-1-yl)methyl)piperidin-1-yl)-3-fluorobenzamide] |
| ≥ 50 | CC1(C)[C@H](NC(=O)c2ccc(N3CCC(CN4CCC(n5ncc6c(N7CCC(=O)NC7=O)cccc65)CC4)CC3)cc2)C(C)(C)[C@H]1Oc1ccc(C#N)c2ncccc12 [Example 29, N-((1r,3r)-3-((8-Cyanoquinolin-5-yl)oxy)-2,2,4,4-tetramethylcyclobutyl)-4-(4-((4-(4-(2,4-dioxotetrahydropyrimidin-1(2H)-yl)-1H-indazol-1-yl)piperidin-1-yl)methyl)piperidin-1-yl)benzamide] |
| ≥ 50 | COc1cc(O[C@H]2C(C)(C)[C@H](NC(=O)c3ccc(N4CCC(CN5CCC(n6ccc7c(N8CCC(=O)NC8=O)c(F)ccc76)CC5)CC4)c(F)c3)C2(C)C)ccc1C#N [Example 23, N-((1r,3r)-3-(4-Cyano-3-methoxyphenoxy)-2,2,4,4-tetramethylcyclobutyl)-4-(4-((4-(4-(2,4-dioxotetrahydropyrimidin-1(2H)-yl)-5-fluoro-1H-indol-1-yl)piperidin-1-yl)methyl)piperidin-1-yl)-3-fluorobenzamide] |
| ≥ 50 | COc1cc(O[C@H]2C(C)(C)[C@H](NC(=O)c3ccc(N4CCC(CN5CCC(n6ncc7c(N8CCC(=O)NC8=O)cc(F)cc76)CC5)CC4)c(F)c3)C2(C)C)ccc1C#N [Example 24, N-((1r,3r)-3-(4-Cyano-3-methoxyphenoxy)-2,2,4,4-tetramethylcyclobutyl)-4-(4-((4-(4-(2,4-dioxotetrahydropyrimidin-1(2H)-yl)-6-fluoro-1H-indazol-1-yl)piperidin-1-yl)methyl)piperidin-1-yl)-3-fluorobenzamide] |
